Assay results from patent US20020035106A1, “Use of potassium channel agonists for reducing fat food consumption” (priority 2000, published 2002).

Columns and labels:
[1] = tested on: fed male obese Zucker rat; test: The snacking model: consumption of a palatable high fat or low fat meal; format: in vivo
Excerpt: Rats are habituated to the presence of a palatable high fat meal (Research diets 45% fat D12451) or another palatable low fat meal (Research diets 10% fat D12450B) in their home cage during four hours in the morning two times a week, 9-13a.m. The rats feed ad libitum on rat chow (Altromin #1324, 4% fat) outside the hours of the session and water is present adlibitum. The consumption of the meal is monitored, and as it stabilises, by 7-9 sessions, the animal is ready for use.
The animals are tested two times a week, and the baseline is re-established within 24h. During the experimental session, the compound is administered 30 minutes before the session starts. Food and water intake is monitored at 2 and 4 hours after the meal is presented.

[2] = tested on: obese Zucker rats; settings: cited from earlier work
[3] = tested on: hyperinsulinemic obese individuals; settings: 8 weeks treatment; cited from earlier work
[4] = target: T1, KATP-channels on pancreatic beta-cells (Homo sapiens, UniProt Q09428); settings: by activation of KATP-channels on pancreatic beta-cells; cited from earlier work
T1 construct: KATP-channels on pancreatic beta-cells; host or cells: pancreatic beta-cells (endogenous)
T1 sequence (Q09428 whole entry): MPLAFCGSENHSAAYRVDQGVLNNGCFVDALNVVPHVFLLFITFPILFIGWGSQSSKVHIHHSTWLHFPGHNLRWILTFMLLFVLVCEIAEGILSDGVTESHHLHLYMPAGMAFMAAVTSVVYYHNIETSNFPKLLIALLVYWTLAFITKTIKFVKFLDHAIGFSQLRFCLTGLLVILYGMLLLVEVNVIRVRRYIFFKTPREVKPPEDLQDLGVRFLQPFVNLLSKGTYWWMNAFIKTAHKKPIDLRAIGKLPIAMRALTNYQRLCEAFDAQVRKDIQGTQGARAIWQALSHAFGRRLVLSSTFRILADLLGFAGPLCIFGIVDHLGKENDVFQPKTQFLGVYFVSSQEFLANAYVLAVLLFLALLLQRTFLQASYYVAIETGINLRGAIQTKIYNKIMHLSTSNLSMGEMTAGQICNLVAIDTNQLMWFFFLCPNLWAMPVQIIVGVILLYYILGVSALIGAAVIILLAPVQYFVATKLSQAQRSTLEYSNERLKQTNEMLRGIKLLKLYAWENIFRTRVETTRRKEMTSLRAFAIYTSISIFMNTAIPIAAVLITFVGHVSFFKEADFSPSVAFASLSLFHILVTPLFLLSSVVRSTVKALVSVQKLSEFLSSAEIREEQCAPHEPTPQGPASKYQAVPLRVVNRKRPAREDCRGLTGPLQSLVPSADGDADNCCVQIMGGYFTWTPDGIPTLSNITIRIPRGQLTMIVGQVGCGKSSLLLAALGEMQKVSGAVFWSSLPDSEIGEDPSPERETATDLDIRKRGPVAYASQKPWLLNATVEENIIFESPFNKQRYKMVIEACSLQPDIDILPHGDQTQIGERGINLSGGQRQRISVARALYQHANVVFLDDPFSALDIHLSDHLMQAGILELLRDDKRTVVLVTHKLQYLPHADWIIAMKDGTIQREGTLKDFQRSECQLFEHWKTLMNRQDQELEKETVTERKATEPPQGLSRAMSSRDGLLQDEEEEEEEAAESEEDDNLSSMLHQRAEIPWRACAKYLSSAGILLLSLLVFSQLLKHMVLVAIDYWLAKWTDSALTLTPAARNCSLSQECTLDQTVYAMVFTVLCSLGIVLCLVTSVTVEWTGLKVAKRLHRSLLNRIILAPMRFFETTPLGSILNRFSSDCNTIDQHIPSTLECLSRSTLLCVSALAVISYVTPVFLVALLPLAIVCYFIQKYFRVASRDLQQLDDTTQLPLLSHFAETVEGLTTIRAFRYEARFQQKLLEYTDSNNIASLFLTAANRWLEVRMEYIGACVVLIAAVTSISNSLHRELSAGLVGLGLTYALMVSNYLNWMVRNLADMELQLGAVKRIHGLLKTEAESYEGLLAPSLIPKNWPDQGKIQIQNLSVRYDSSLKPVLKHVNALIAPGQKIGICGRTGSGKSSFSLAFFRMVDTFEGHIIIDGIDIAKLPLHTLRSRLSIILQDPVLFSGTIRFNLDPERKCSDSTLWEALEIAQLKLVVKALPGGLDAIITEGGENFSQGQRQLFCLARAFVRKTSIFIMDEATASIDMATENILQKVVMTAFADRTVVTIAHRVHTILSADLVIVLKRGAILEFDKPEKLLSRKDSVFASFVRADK
T1 sequence (Q14654 whole entry partner): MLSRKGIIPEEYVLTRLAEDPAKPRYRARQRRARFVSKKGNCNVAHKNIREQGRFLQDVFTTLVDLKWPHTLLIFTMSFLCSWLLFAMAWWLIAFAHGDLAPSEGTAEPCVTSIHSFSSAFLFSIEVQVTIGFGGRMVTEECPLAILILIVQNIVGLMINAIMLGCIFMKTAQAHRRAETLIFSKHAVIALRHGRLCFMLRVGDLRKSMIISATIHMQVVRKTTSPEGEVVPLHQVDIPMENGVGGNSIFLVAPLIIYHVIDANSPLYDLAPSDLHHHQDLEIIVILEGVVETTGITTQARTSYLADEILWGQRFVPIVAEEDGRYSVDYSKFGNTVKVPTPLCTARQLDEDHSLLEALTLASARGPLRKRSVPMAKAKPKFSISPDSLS

[5] = tested on: rats; settings: cited from earlier work
[6] = tested on: mice; settings: intracerebroventricular administration; cited from earlier work
[7] = 30 mg/kg PO admin., 30 minutes before session

CC1(NC2=NS(=O)(=O)c3sc(Cl)cc3N2)CC1 [6-Chloro-3-(1-methylcyclopropyl)amino-4H-thieno[3,2-e]-1,2,4-thiadiazine 1,1-dioxide]
reduced consumption of a high fat meal (45 kcal % fat) ([1]; 5 mg/kg PO admin.): 44%
reduced consumption of a low fat meal (10 kcal % fat) ([1]; 5 mg/kg PO admin.): 15%
reduced consumption of a high fat meal (45 kcal % fat) ([1]; 15 mg/kg PO admin.): 64%
reduced consumption of a low fat meal (10 kcal % fat) ([1]; 15 mg/kg PO admin.): 57%
reduced consumption of a high fat meal (45 kcal % fat) [1, 7]: 86%
reduced consumption of a low fat meal (10 kcal % fat) [1, 7]: 75%

CC(C)NC1=NS(=O)(=O)c2sc(Cl)cc2N1 [6-Chloro-3-isopropylamino-4H-thieno[3,2-e]-1,2,4-thiadiazine 1,1-dioxide]
reduced consumption of a high fat meal (45 kcal % fat) [1, 7]: 77%
reduced consumption of a low fat meal (10 kcal % fat) [1, 7]: 61%

CC1=Nc2ccc(Cl)cc2S(=O)(=O)N1 [Diazoxide, 7-chloro-3-methyl-2H-1,2,4-benzothiadiazine 1,1-dioxide]
leptin and lipid metabolising enzymes ([2]; adipose tissue of Zucker rats): down-regulate leptin and lipid metabolising enzymes
glucose tolerance ([2]; obese Zucker rats): improve glucose tolerance
insulin receptor binding ([2]; obese Zucker rats): increase insulin receptor binding
insulin secretion ([2]; obese Zucker rats): decrease insulin secretion
weight gain ([2]; obese Zucker rats): decrease weight gain
antiobesity effect [3]: significant antiobesity effect
reduced consumption of a high fat meal (45 kcal % fat) [1, 7]: 53%
reduced consumption of a low fat meal (10 kcal % fat) [1, 7]: 42%
insulin release [4]: inhibit insulin release

CC1(C)Oc2ccc(C#N)cc2C(N2CCCC2=O)C1O (stereo not drawn) [cromakalim]
intake of food ([5]; intraperitonal administration): reduces the intake of food
intake of food [6]: increase to intake of food

COc1ccc(Cl)cc1C(=O)NCCc1ccc(S(=O)(=O)NC(=O)NC2CCCCC2)cc1 [glibenclamide]
food intake ([5]; central administration): reduce food intake

CC(N/C(=N\C#N)Nc1ccncc1)C(C)(C)C (stereo not drawn) [pinacidil]
intake of food [6]: increase to intake of food
